Test results from paper PMC3840065, “Structural Insights into the Mechanism for Recognizing Substrate of the Cytochrome P450 Enzyme TxtE” (PLoS ONE, 2013).

Experiments:
Assay in all cases: UV-vis difference titration (type I shift, […] nm)
Type in all cases: binding
[1] = biological target: T1, TxtE (Streptomyces scabiei, UniProt C9ZDC6)
T1 construct: full length, 406 residues, pET-28a, N-terminal His-tag with thrombin site (tag kept), E. coli Rosetta(DE3) pLysS, monomer in solution

[2] = biological target: T2, TxtE (Streptomyces scabiei, UniProt C9ZDC6, N293L)
T2 construct: full length, 406 residues, pET-28a, N-terminal His-tag with thrombin site (tag kept), E. coli Rosetta(DE3) pLysS, monomer in solution

[3] = biological target: T3, TxtE (Streptomyces scabiei, UniProt C9ZDC6, Y89F)
T3 construct: full length, 406 residues, pET-28a, N-terminal His-tag with thrombin site (tag kept), E. coli Rosetta(DE3) pLysS, monomer in solution
T3 sequence (C9ZDC6 whole entry Y89F): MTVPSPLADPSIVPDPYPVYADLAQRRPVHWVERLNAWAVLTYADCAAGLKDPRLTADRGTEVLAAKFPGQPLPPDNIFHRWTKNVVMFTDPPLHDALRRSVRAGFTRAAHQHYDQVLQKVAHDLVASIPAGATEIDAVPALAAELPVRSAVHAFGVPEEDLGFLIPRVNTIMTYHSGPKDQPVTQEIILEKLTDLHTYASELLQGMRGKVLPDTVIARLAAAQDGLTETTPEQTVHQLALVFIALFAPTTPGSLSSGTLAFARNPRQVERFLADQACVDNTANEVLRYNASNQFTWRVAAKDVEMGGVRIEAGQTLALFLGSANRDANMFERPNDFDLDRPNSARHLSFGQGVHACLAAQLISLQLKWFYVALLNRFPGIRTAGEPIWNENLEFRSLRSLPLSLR

T2 sequence (C9ZDC6 whole entry N293L): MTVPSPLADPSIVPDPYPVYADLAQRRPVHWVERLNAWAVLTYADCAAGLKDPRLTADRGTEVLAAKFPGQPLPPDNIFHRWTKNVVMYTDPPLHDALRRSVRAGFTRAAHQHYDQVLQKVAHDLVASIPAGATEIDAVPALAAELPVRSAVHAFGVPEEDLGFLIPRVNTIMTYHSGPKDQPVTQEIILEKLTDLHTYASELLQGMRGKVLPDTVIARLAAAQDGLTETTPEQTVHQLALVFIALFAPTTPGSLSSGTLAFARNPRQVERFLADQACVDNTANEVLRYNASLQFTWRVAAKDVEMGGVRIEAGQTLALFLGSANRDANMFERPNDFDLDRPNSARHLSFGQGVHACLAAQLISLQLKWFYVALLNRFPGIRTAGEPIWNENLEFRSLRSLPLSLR
T1 sequence (C9ZDC6 entry or part of it): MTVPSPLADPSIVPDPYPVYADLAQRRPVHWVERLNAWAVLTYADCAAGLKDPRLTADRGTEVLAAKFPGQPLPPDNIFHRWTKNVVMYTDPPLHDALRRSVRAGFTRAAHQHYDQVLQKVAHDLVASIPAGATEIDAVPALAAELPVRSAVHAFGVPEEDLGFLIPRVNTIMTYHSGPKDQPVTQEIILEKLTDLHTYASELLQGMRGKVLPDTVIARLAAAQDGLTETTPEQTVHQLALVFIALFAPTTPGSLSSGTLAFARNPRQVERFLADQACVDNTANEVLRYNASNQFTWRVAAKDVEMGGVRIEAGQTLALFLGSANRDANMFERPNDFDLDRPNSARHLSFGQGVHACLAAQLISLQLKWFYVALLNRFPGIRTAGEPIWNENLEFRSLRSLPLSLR

N[C@@H](Cc1c[nH]c2ccccc12)C(=O)O [L-tryptophan]
Kd [1]: 43.6 ± 2.26 µM
Kd [2]: 1700 ± 280 µM
Kd [3]: 121 ± 4.3 µM
